This is an account of results in patent US20120277209A1, “PYRAZINE COMPOUNDS AS PHOSPHODIESTERASE 10 INHIBITORS” (Amgen Inc., priority 2009, published 2012).

The target in the first experiment is PDE10 (UniProt Q9Y233). As to the kind of experiment: PDE10 enzyme inhibition, IMAP TR-FRET assay (MPDE10A7 Enzyme Activity and Inhibition). The conditions noted are these: IC50 class against PDE10; read-out: IC50. The class given is biochemical. The procedure, abridged: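 IMAP TR-FRET read-out of PDE10 hydrolysis of fluorescein-cAMP or -cGMP (60 min, room temperature), after a 30 min compound-enzyme preincubation. Enzyme source was PDE10A or tissue homogenate. Averaged IC50s are reported as five range classes.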
Usually IC50 stands for the concentration needed to halve the response being measured. For `COc1cncc(-c2nccnc2Oc2ccc(C(=O)c3nc4ccccc4[nH]3)cc2)c1` [Example 118, (1H-benzo[d]imidazol-2-yl)(4-(3-(5-methoxypyridin-3-yl)pyrazin-2-yloxy)phenyl)methanone], the concentration for half-maximal inhibition (IC50) was less than 0.025 µM. Take `COC(=O)C1CCN(c2nccnc2Oc2ccc(Nc3nc4ccccc4s3)cc2)C1` (stereo not shown) [Example 96, methyl 1-(3-(4-(benzo[d]thiazol-2-ylamino)phenoxy)pyrazin-2-yl)pyrrolidine-3-carboxylate]: the IC50 is less than 0.025 µM. Regarding `COc1ncc(-c2nccnc2Oc2ccc(Nc3nc4ccccc4s3)cc2)cn1` [Example 144, N-(4-(3-(2-methoxypyrimidin-5-yl)pyrazin-2-yloxy)phenyl)benzo[d]thiazol-2-amine], the IC50 is less than 0.025 µM. On to `c1ccc2sc(Nc3ccc(Oc4nccnc4-c4cccc5ncccc45)cc3)nc2c1` [Example 147, N-(4-(3-(quinolin-5-yl)pyrazin-2-yloxy)phenyl)benzo[d]thiazol-2-amine], for which the IC50 fell in the range of 0.025 to 0.1 µM. For `c1ccc2sc(Nc3ccc(Oc4nccnc4C4CCOCC4)cc3)nc2c1` [Example 208, N-(4-(3-(tetrahydro-2H-pyran-4-yl)pyrazin-2-yloxy)phenyl)benzo[d]thiazol-2-amine], the IC50 is less than 0.025 µM.

With `Cc1ncccc1-c1nccnc1Oc1ccc(C(=O)c2nc3ccccc3n2C)cc1` [Example 110, (1-methyl-1H-benzo[d]imidazol-2-yl)(4-(3-(2-methylpyridin-3-yl)pyrazin-2-yloxy)phenyl)methanone], the IC50 lay in the range of 0.025 to 0.1 µM. For the compound `COc1nc2ccccc2cc1-c1nccnc1Oc1ccc(C(=O)c2nc3ccccc3[nH]2)cc1` [Example 115, (1H-benzo[d]imidazol-2-yl)(4-(3-(2-methoxyquinolin-3-yl)pyrazin-2-yloxy)phenyl)methanone], the IC50 is less than 0.025 µM. Regarding `Fc1cc(Oc2nccnc2Cl)ccc1Nc1nc2ccccc2s1` [Example 103, N-(4-(3-chloropyrazin-2-yloxy)-2-fluorophenyl)benzo[d]thiazol-2-amine], the IC50 is 1 to 5 µM. On to `c1ccc2sc(Nc3ccc(Oc4nccnc4N4CCCC4)cc3)nc2c1` [Example 68, N-(4-(3-(pyrrolidin-1-yl)pyrazin-2-yloxy)phenyl)benzo[d]thiazol-2-amine], for which the concentration for half-maximal inhibition (IC50) was 0.025 to 0.1 µM. For the compound `COC(=O)C1(c2nccnc2Oc2ccc(Nc3nc4ccccc4s3)cc2)CCN(C(=O)OC(C)(C)C)CC1` [Example 205, 1-tert-butyl 4-methyl 4-(3-(4-(benzo[d]thiazol-2-ylamino)phenoxy)pyrazin-2-yl)piperidine-1,4-dicarboxylate], the IC50 was less than 0.025 µM. Regarding `CC(=O)N1CCC(c2nccnc2Oc2ccc(C(=O)c3nc4ccccc4[nH]3)cc2)CC1` [Example 224, 1-(4-(3-(4-(1H-BENZO[D]IMIDAZOLE-2-CARBONYL)PHENOXY)PYRAZIN-2-YL)PIPERIDIN-1-YL)ETHANONE], the IC50 was less than 0.025 µM.

Turning to `O=C1CCCC(c2nccnc2Oc2ccc(Nc3nc4ccccc4s3)cc2)C1` (racemic) [Example 194, (rac)-3-(3-(4-(benzo[d]thiazol-2-ylamino)phenoxy)pyrazin-2-yl)cyclohexanone], the half-maximal inhibitory concentration (IC50) was less than 0.025 µM. On the same count and under the same terms, for `[2H]C([2H])([2H])C(=O)N1CCC(c2nccnc2Oc2ccc(C(=O)c3nc4ccccc4[nH]3)cc2)CC1` [Example 231, 1-(4-(3-(4-(1H-benzo[d]imidazole-2-carbonyl)phenoxy)pyrazin-2-yl)piperidin-1-yl)perdeuteroethanone] the value was less than 0.025 µM; for `COCC(=O)N1CCC(c2nccnc2Oc2ccc(Nc3nc4ccccc4s3)cc2)CC1` [Example 233, 1-(4-(3-(4-(benzo[d]thiazol-2-ylamino)phenoxy)pyrazin-2-yl)piperidin-1-yl)-2-methoxyethanone], less than 0.025 µM; for `O=C(c1ccc(Oc2nccnc2C2(O)CCOCC2)cc1)c1nc2ccccc2[nH]1` [Example 213, (1H-benzo[d]imidazol-2-yl)(4-(3-(4-hydroxytetrahydro-2H-pyran-4-yl)pyrazin-2-yloxy)phenyl)methanone], less than 0.025 µM. For `OC[C@@H]1CCN(c2nccnc2Oc2ccc(Nc3nc4ccccc4s3)cc2)C1` [Example 85, (R)-(1-(3-(4-(benzo[d]thiazol-2-ylamino)phenoxy)pyrazin-2-yl)pyrrolidin-3-yl)methanol], the concentration for half-maximal inhibition (IC50) is less than 0.025 µM.

With `CC(=O)N1CCC(c2nccnc2Oc2ccc(C(O)c3nc4ccccc4[nH]3)cc2)CC1` (stereo not shown) [Example 228, 1-(4-(3-(4-((1H-benzo[d]imidazol-2-yl)(hydroxy)methyl)phenoxy)pyrazin-2-yl)piperidin-1-yl)ethanone], the IC50 is less than 0.025 µM. For `Cc1ccc(-c2nccnc2Oc2ccc(Nc3nc4ccccc4s3)cc2)cn1` [Example 140, N-(4-(3-(6-methylpyridin-3-yl)pyrazin-2-yloxy)phenyl)benzo[d]thiazol-2-amine], the IC50 is less than 0.025 µM.

Regarding `OC1CCCN(c2nccnc2Oc2ccc(Nc3nc4ccccc4s3)cc2)C1` (stereo not shown) [Example 69, 1-(3-(4-(benzo[d]thiazol-2-ylamino)phenoxy)pyrazin-2-yl)piperidin-3-ol], the IC50 is less than 0.025 µM. With `c1ccc2sc(Nc3ccc(Oc4nccnc4N4CCc5[nH]cnc5C4)cc3)nc2c1` [Example 80, N-(4-(3-(6,7-dihydro-1H-imidazo[4,5-c]pyridin-5(4H)-yl)pyrazin-2-yloxy)phenyl)-benzo[d]thiazol-2-amine], the IC50 lay within 0.025 to 0.1 µM.

The experiment is the same for the next values; noted with them: PDE10 enzyme inhibition; average IC50 data for each compound; read-out: Average IC50.
Turning to `OCCN1CCN(c2nccnc2Oc2ccc(Nc3nc4ccccc4s3)cc2)CC1` [drawing 720], the IC50 was 0.00844 µM. As for `Fc1ccc2sc(Nc3ccc(Oc4cnccn4)cc3)nc2c1` [drawing 882], the half-maximal inhibitory concentration (IC50) was determined as 12.5 µM. Same read-out and setting: the same measure for `COc1ncccc1-c1nccnc1Oc1ccc(Nc2nc3ccc(F)cc3s2)cc1` [drawing 959]: 0.0072 µM. Turning to `O=C(c1ccc(Oc2nccnc2C(=O)NC2(Cc3ccccc3)CC2)cc1)c1nc2ccccc2[nH]1` [drawing 822], the half-inhibitory concentration (IC50) is 0.000575 µM. Regarding `O=C(c1ccc(Oc2nccnc2C2(O)CCOCC2)cc1)c1nc2ccccc2[nH]1` [drawing 908], the IC50 turned out to be 0.00216 µM. `O=C(c1ccc(Oc2nccnc2-c2ccc[nH]c2=O)cc1)c1nc2ccccc2[nH]1` [drawing 938]: the half-maximal inhibitory concentration (IC50) was found to be 0.00708 µM. Take `CC(C)(C)OC(=O)N1CCC(CO)(c2nccnc2Oc2ccc(Nc3nc4ccccc4s3)cc2)CC1` [drawing 875]: the IC50 was 0.251 µM. On to `Cc1noc([C@@H]2CCN(c3nccnc3Oc3ccc(C(=O)c4nc5ccccc5[nH]4)cc3)C2)n1` (stereo in doubt), for which the IC50 is 0.00373 µM. For the compound `O=C(c1ccc(Oc2nccnc2C(=O)NCCO)cc1)c1nc2ccccc2[nH]1` [drawing 817], the concentration for half-maximal inhibition (IC50) was determined as 0.0655 µM. On to `O=C(c1ccc(Oc2nccnc2C2CCOCC2)cc1)c1nc2ncccc2[nH]1` [drawing 890], for which the half-inhibitory concentration (IC50) was determined as 0.00772 µM. Take `CN(C)CC(=O)N1CCC(c2nccnc2Oc2ccc(C(=O)c3nc4ccccc4[nH]3)cc2)CC1` [drawing 995]: the IC50 is 0.00143 µM.

With `C[C@@H]1CN(c2nccnc2Oc2ccc(Nc3nc4ccccc4s3)cc2)CC(=O)N1` (racemic), the IC50 amounted to 0.00464 µM. On to `O=C(c1ccc(Oc2nccnc2C2=CCCOC2)cc1)c1nc2ccccc2[nH]1`, for which the half-inhibitory concentration (IC50) is 0.0161 µM. In the case of `O=C(c1ccc(Oc2nccnc2N2CCOCC2)cc1)c1nc2ncccc2[nH]1`, the half-inhibitory concentration (IC50) amounted to 0.0116 µM. Consider `C[C@H](F)C(=O)N1CCC(c2nccnc2Oc2ccc(C(=O)c3nc4ccccc4[nH]3)cc2)CC1` [drawing 977], for which the half-inhibitory concentration (IC50) was determined as 0.000137 µM. Regarding `CC(=O)O[C@@H](C)C(=O)N1CCC(c2nccnc2Oc2ccc(C(=O)c3nc4ccccc4[nH]3)cc2)CC1` (stereo in doubt), the concentration for half-maximal inhibition (IC50) came to 0.000119 µM. Same read-out and setting: for `O=C(c1ccc(Oc2nccnc2C(=O)NCCc2ccc(C(F)(F)F)cc2)cc1)c1nc2ccccc2[nH]1` [drawing 807] the value was 0.0246 µM; for `O=C(c1ccc(Oc2nccnc2C2=CC[C@@H](O)CC2)cc1)c1nc2ccccc2[nH]1` (racemic), 0.00169 µM.

As for `O=C(c1ccc(Oc2nccnc2[C@H]2CCCOC2)cc1)c1nc2ccccc2[nH]1` (stereo in doubt), the 50% inhibitory concentration (IC50) came to 0.00259 µM.

`O=C1CCC(c2nccnc2Oc2ccc(C(=O)c3nc4ccccc4[nH]3)cc2)CC1` [drawing 911]: the IC50 was 0.000199 µM.

For `c1ccc2sc(Nc3ccc(Oc4nccnc4C4CCOCC4)cc3)nc2c1` [drawing 864], the half-inhibitory concentration (IC50) came out at 0.000606 µM.

Regarding `COc1cccc(-c2nccnc2Oc2ccc(C(=O)c3nc4ccccc4[nH]3)cc2)c1` [drawing 759], the IC50 was 0.036 µM. Turning to `O[C@H]1CCC[C@H](c2nccnc2Oc2ccc(Nc3nc4ccccc4s3)cc2)C1` [drawing 894], the half-inhibitory concentration (IC50) turned out to be 0.00157 µM. `CN1CCCC1CCOc1nccnc1Oc1ccc(C(=O)c2nc3ccccc3[nH]2)cc1` (stereo not shown) [drawing 858]: the IC50 stood at 0.235 µM. For `O=C(c1ccc(Oc2nccnc2[C@@H]2CCC[C@@H](O)C2)cc1)c1nc2ccccc2[nH]1` (stereo in doubt) [drawing 898], the IC50 was determined as 0.00125 µM.

For `O=C(c1ccc(Oc2nccnc2-c2ccnc(C(F)(F)F)c2)cc1)c1nc2ccccc2[nH]1` [drawing 753], the half-maximal inhibitory concentration (IC50) was 0.242 µM.

The experiment is the same for the next values; noted with them: PDE10 enzyme inhibition; chiral compounds separated from racemic mixtures; read-out: IC50.
Consider `O[C@@H]1CCC[C@@H](c2nccnc2Oc2ccc(Nc3nc4ccccc4s3)cc2)C1` [Example 276, (1R,3R)-3-(3-(4-(benzo[d]thiazol-2-ylamino)phenoxy)pyrazin-2-yl)cyclohexanol], for which the IC50 was less than 0.025 µM. Consider `C[C@@H](F)C(=O)N1CCC(c2nccnc2Oc2ccc(Nc3nc4ccccc4s3)cc2)CC1` [Example 279, (R)-1-(4-(3-(4-(benzo[d]thiazol-2-ylamino)phenoxy)pyrazin-2-yl)piperidin-1-yl)-2-fluoropropan-1-one], for which the IC50 was less than 0.025 µM. Turning to `C[C@H]1CN(c2nccnc2Oc2ccc(Nc3nc4ccccc4s3)cc2)CC(=O)N1` [Example 268, (S)-4-(3-(4-(benzo[d]thiazol-2-ylamino)phenoxy)pyrazin-2-yl)-6-methylpiperazin-2-one], the IC50 was less than 0.025 µM.
